Measurements from US20060263345A1, “Butyrylcholinesterase variant polypeptides with increased catalytic efficiency and methods of use” (priority 2003, published 2006).
Like-named read-outs stand apart in the source and are kept apart here.

Columns and labels:
Sprague Dawley rats = assay: pilot studies, lethal dose of infused cocaine; settings: rat, i.v. infusion
Method: Briefly, unilateral/bilateral jugular cannulations were performed under isoflurane anesthesia (max. 20 min) on 350 g male :Sprague Dawley®SD® rats (Harlan Sprague Dawley, Inc.) The animals were allowed to recover for 24 hours before studies commenced. […] One minute later, the cannula was connected to an infusion pump (Harvard Apparatus) and cocaine (HCI salt) was infused at 6 mls/hr (2 mg/kg/min) for 15 minutes corresponding to a total dose equal to 30 mg/kg. The time-to-onset for slight convulsions, strong convulsions and death were recorded. […] In a second series of studies, 0.5 mg/kg of the A328W/Y332M/S287G/F227A variant was administered at various time points after initiation of the 30mglkg cocaine infusion and gross observations recorded.

cocaine toxicity = settings: rat, infusion of cocaine at 1 mg/kg/min, catecholamine levels standardized; cited from earlier work
[1] = Km for cocaine hydrolysis by horse butyrylcholinesterase, isotope tracer assay, Lineweaver-Burk plot; type: biochemical; settings: 2 hour incubation at 37° C.; x intercept = -1/Km
From the text: At the conclusion of the isotope tracer assay, an aliquot of the reaction mix is acidified in order to take advantage of the solubility difference between the product and the substrate at pH 3.0. […] Prospect, Ill.) while [3H]-cocaine is not.

[2] = read-out: Km for cocaine hydrolysis, previously published, cited from earlier work

COC(=O)[C@H]1[C@@H](OC(=O)c2ccccc2)C[C@@H]2CC[C@H]1N2C [cocaine]
lethal dose of cocaine (Sprague Dawley rats): approximately 25 mg/kg
LD50 (cocaine toxicity): 10 mg/kg
LD90 (cocaine toxicity): 16 mg/kg

horse butyrylcholinesterase
Km [1]: ~37.6 µM
Km ([2]; Gatley 1991): 38 µM
Km ([2]; Xie et al. 1999): 45 ± 5 µM
